A short description of data set [1]: Antioxidant activity assessed as trolox equivalents of AAPH-induced radical scavenging activity by ORAC-FL assay. In kind it is functional.
The subject of data set [2] is NCTC-2544. Put plainly: Antioxidant activity in human NCTC-2544 cells assessed as reduction in H2O2-induced ROS level at 30 uM preincubated with cells followed by H2O2 addition measured after 24 hrs by DCFH-DA staining based fluorescence assay. The format is functional.
The subject of data set [3] is NCTC-2544. Kind of data set: Cytotoxicity against human NCTC-2544 cells assessed as reduction in cell viability at 30 uM up to 72 hrs by WST8 assay. The format is cell-based. As to conditions: nctc-2544, 72 h. In general terms: Formazan colour is commonly taken as a measure of viable cells.
In data set [4] the test system is NCTC-2544. Kind of data set: Antioxidant activity in human NCTC-2544 cells assessed as reduction in H2O2-induced ROS level at 30 uM preincubated up to 3 hrs followed by H2O2 addition measured for 30 mins by DCFH-DA staining based fluorescence assay. The format is functional, cell-based.
A further data set relates to DNA. Kind of data set: Antioxidant activity assessed as protection against ferrous ions and dioxygen-induced free radical-mediated DNA strand break in pEMBL8 supercoiled DNA preincubated with DNA followed by (NH4)2Fe(SO4)2.6H2O addition measured after 6 mins by ethidium bromide staining based agarose gel electrophoresis method. In kind it is functional.
Data set [5] relates to NCTC-2544. Kind of data set: Antioxidant activity in human NCTC-2544 cells assessed as reduction in intracellular oxidation level at 30 uM after 24 hrs by DCFH-DA staining based fluorescence assay. The format is functional, cell-based.
For data set [6], the system named is NCTC-2544. Put plainly: Antioxidant activity in human NCTC-2544 cells assessed as reduction in intracellular oxidation level at 30 uM after 1 hr by DCFH-DA staining based fluorescence assay. In kind it is functional, cell-based.
Data set [7] relates to NCTC-2544. Put plainly: Antioxidant activity in human NCTC-2544 cells assessed as reduction in intracellular oxidation level at 30 uM after 3 hrs by DCFH-DA staining based fluorescence assay. The format is functional, cell-based.
Data set [8] deals with NCTC-2544. Put plainly: Cytotoxicity against human NCTC-2544 cells assessed as reduction in cell viability at 30 uM at 72 hrs by WST8 assay relative to control. The settings on record: nctc-2544, 72 h. In kind it is cell-based.

Structures are written as SMILES. The source made the active and inactive calls. The calls are words filed in the database; no cut-off is given here.

With `COc1ccc2c(c1OC)CN1CCc3cc4c(cc3C13C2C(C(=O)Nc1ccccc1)=C(C)N3NC(=O)Nc1ccccc1)OCO4` (centres undefined), the Activity in data set [1] was 185 equiv; in the data set on NCTC-2544 [3] it was “Non-Toxic”. Besides, in the data set with NCTC-2544 [2], the outcome was inactive. The result in the data set with NCTC-2544 [4] was Active. Moreover, the EC50 with DNA was 140 µM.

Turning to `CCOC(=O)C1=C(C)N(NC(=O)OC(C)(C)C)C23c4cc5c(cc4CCN2Cc2c(ccc(OC)c2OC)C13)OCO5` (centres undefined), the figures for the Activity (in data set [1]; with NCTC-2544 [2]; in the data set on NCTC-2544 [3]) were 1560 equiv, 37% and “Non-Toxic”, respectively. Besides, the outcome in the data set on NCTC-2544 [5], in the data set with NCTC-2544 [4], with NCTC-2544 [6] and in the data set with NCTC-2544 [7] was Active. In the data set on DNA, the EC50 is 74 µM.

On to `CCOC(=O)NN1C(C)=C(C(=O)OCC)C2c3ccc(OC)c(OC)c3CN3CCc4cc5c(cc4C231)OCO5` (centres undefined), for which the Activity is 955 equiv in data set [1] and “Non-Toxic” in the data set with NCTC-2544 [3]. For the same molecule, the outcome in the data set on NCTC-2544 [2] was inactive. Further, the outcome in the data set on NCTC-2544 [4] and with NCTC-2544 [6] was Active. Further, the EC50 in the data set on DNA was 407 µM.

Turning to `COc1ccc2c(c1OC)CN1CCc3cc4c(cc3C1C2)OCO4` (centres undefined) [TETRAHYDROBERBERINE], the Activity in [1] stood at 1580 equiv. The outcome with NCTC-2544 [2] and in the data set on NCTC-2544 [5] was inactive. For the same molecule, the result with NCTC-2544 [4] was Active. Besides, in the data set on DNA, the half-maximal effective concentration (EC50) is 93 µM.

`COC(=O)NN1C(C)=C(C(=O)OC)C2c3ccc(OC)c(OC)c3CN3CCc4cc5c(cc4C231)OCO5` (centres undefined): the Activity in data set [1] is 855 equiv; with NCTC-2544 [3], “Non-Toxic”. In addition, in the data set on NCTC-2544 [2], the outcome was inactive. Besides, the outcome with NCTC-2544 [4] was Active. For the same molecule, the 50% effective concentration (EC50) with DNA came out at 683 µM.

As to `COC(=O)C1=C(C)N(NC(=O)Nc2ccccc2)C23c4cc5c(cc4CCN2Cc2c(ccc(OC)c2OC)C13)OCO5` (centres undefined), the Activity in [1] was 1160 equiv; in the data set with NCTC-2544 [3] it was “Non-Toxic”. For the same molecule, the result in the data set with NCTC-2544 [2] was inactive. In the data set on NCTC-2544 [4], the outcome was Active. The half-maximal effective concentration (EC50) in the data set on DNA is 63 µM.

With `COC(=O)C1=C(C)N(NC(=O)OC(C)(C)C)C23c4cc5c(cc4CCN2Cc2c(ccc(OC)c2OC)C13)OCO5` (centres undefined), the Activity was 1470 equiv in data set [1] and “Non-Toxic” in the data set on NCTC-2544 [3]. The outcome with NCTC-2544 [2] was inactive. Besides, the result in the data set with NCTC-2544 [4] was Active. In the data set with DNA, the EC50 amounted to 119 µM.

As for `COc1ccc2c(c1OC)CN1CCc3cc4c(cc3C13C2C(P(=O)(OC)OC)=C(C)N3NC(=O)OC(C)(C)C)OCO4` (centres undefined), the Activity in data set [1] amounted to 1130 equiv; with NCTC-2544 [8], 35%. In addition, in the data set on NCTC-2544 [2], the result was inactive. For the same molecule, in the data set on NCTC-2544 [4], the result was Active. Further, in the data set on DNA, the EC50 is 196 µM.

What is called EC50 is the concentration that produces a half-maximal response.

(Values after ChEMBL document CHEMBL4152359, “Synthesis and biological evaluation of novel heteroring-annulated pyrrolino-tetrahydroberberine analogues as antioxidant agents” (Bioorg Med Chem, 2018).)
